The text below walks through data of patent publication US12485117B2, “Compositions and methods for activating signaling through the CB1 cannabinoid receptor for treating and preventing diseases and disorders characterized by abnormal cellular accumulation of sphingolipids such as sphingomyelin” (Wylder Nation Foundation, priority 2018, dated 2025).

In series [1] the test system is cultured primary hippocampal neurons from ASMko mice. Nature of the series: Sphingomyelin levels by enzymatic assay in cultured primary hippocampal neurons from ASMko mice. It counts as cell-based, mouse. The text has this:
FIGS. 5A-5D show sphingomyelin and endocannabinoid levels in cultured primary hippocampal neurons and hippocampal tissue, respectively, from ASMko and wildtype mice.
Statistical significance Student's t-test, *P<0.05, **P<0.005, n=3 independent cultures.
Statistical significance Student's t-test, **P<0.005, n=3 independent cultures.
Anandamide (AEA) is the major endogenous CB1 ligand. We therefore tested whether increased levels of anandamide affected sphingomyelin levels in cultured primary hippocampal neurons from ASMko mice. Anandamide was increased in two ways: • 1. By incubating the neuronal cultures with exogenous anandamide; and • 2. By incubating the neuronal cultures with PF-04457845, which is an inhibitor of the anandamide hydrolytic enzyme FAAH. Inhibition of FAAH causes accumulation of anandamide by inhibiting FAAH-mediated hydrolyzation of anandamide.
The following experiments were performed in three independent cultures of hippocampal neurons derived from ASMko mice. Treatments were done at 11-13 days in vitro when these cells are considered mature and functional.
To set the optimal conditions for such hydrolysis in terms of concentration and time of incubation, anandamide was added to the culture medium of mature ASMko hippocampal neurons at 0, 5, 25, 50 and 100 μM for 30 minutes or 1 hour. […] The optimal conditions for SM degradation were in a range of concentration of 25-50 μM for 1 hour. […] We therefore decided to use 25 μM anandamide for 1-hour incubation time in our next experiments.
Similar to the anandamide dose/time response experiment above, we performed another dose response experiment using URB597 (URB), an inhibitor of the anandamide-hydrolyzing enzyme FAAH, to be used as reference for the other FAAH inhibitors. The experiments were done in the presence or absence of exogenous anandamide. URB was added to the culture medium of ASMko mature neurons at 0, 5, 25 and 50 μM for 1 hour with or without □□ μM anandamide.
We next compared URB efficacy to reduce SM levels with that of other FAAH inhibitors PF-04457845 (PF) and JNJ-1661010 (JNJ).

Series [2] relates to microglia. Briefly: Microglia number and morphology by iba-1 immunofluorescence after 8-week treatment. It is filed as in vivo, mouse. Conditions: 0.3 mg/kg every three days. Here is the method: Representative images of microglia stained for iba-1 (green) in the cerebellum, hippocampus and cortex of wt and ASMko mice treated or not with PF-04457845. […] Graphs show mean±SEM microglia number and cell body area (n=7, **p<0.01, *p<0.05).
Treatment started at 7 weeks of age and continued for 8 weeks. PF-04457845 was dissolved in 0.9% NaCl and delivered through oral gavage at a dose of 0.3 mg/kg every three days. We chose this dose based on the studies published by Ahn et al., (J Pharm Exp Ther 2011). Control groups received same volume of 0.9% NaCl without PF-04457845.
Brain inflammation was determined by analysis of glial cells in the cerebellum, hippocampus and cortex. The number and morphology of microglia was analyzed by immunofluorescence staining with the marker iba-1 (FIG. 16). […] PF-04457845 treatment had no effect in microglia of wt mice. The amount of astrocytes was analyzed by immunofluorescence with the marker GFAP (FIG. 17). […] PF-04457845 treatment had no effect in astrocytes of wt mice (FIG. 17).

The subject of series [3] is wt and ASMko mice. Briefly: Acute toxicity: sphingomyelin levels by enzymatic assay in brain areas and liver. It counts as in vivo, mouse. The note with it: 48 hours. Here is the method:
(§1) We divided wt and ASMko mice of 4.5 months of age in six experimental groups: ASMko control (n=3), ASMko low dose (n=3), ASMko intermediate dose (n=3), ASMko high dose (n=3), wt control (n=3), wt high dose (n=3). PF-04457845, provided as powder, was dissolved in 0.9% NaCl and administered to mice through oral gavage. Vehicle groups received same volume of 0.9% NaCl.
Doses have been calculated taking into account that used in the study conducted in healthy humans (Li et al., Br J Clin Pharmacol 2011, 73:706-716). […] Estimating an average weight of 60 kg for an adult human the daily dose equals to 0.0083 mg/kg. This dose was very similar to that used in our first 8 week-long treatment with PF-04457845 in ASMko mice, which according to the formulas to calculate equivalence between humans and mice (Nair and Jacob J Basic Clin Pharma 2016, 7:27-31) corresponded to a daily HED dose of 0.0072 mg/kg. For this toxicity study we agreed to take into account the human dose: 0.0083 mg/kg. Formula conversion to mouse dose: HED (mg/kg)=Mouse dose (mg/kg)×mouseKm/Human Km).
Sphingomyelin levels were quantified by enzymatic assay in extracts from different brain areas (hippocampus, cerebellum and cortex) and from liver of wt and ASMko mice treated with PF-04457845 at 0.1 mg/kg, 1 mg/kg and 5 mg/kg or with vehicle (FIG. 26). The results confirmed the remarkable increase of sphingomyelin levels in the vehicle-treated ASMko mice with respect to wt at this advanced stage of the disease (168% in hippocampus, 170% in cerebellum, 139% in cortex and 216% in liver with respect to wt values considered 100%).

Series [4] deals with wt and ASMko mice. Briefly: Acute toxicity: H&E staining of brain and liver. It counts as in vivo, mouse. The note with it: any of the doses. The method, then: FIGS. 27A-27C show H&E staining in wt and ASMko mice treated or not treated with PF-04457845.
as §1
Brain and liver tissue was stained with H&E to evaluate histopathological features.
In the liver foam cells showing white vacuoles indicative of lipid accumulation were evident in vehicle treated ASMko mice compared to wt (FIG. 28).

The subject of series [5] is microglia. Nature of the series: Acute toxicity: brain inflammation by iba-1 immunofluorescence (microglia numbers). It is filed as in vivo, mouse. The note with it: ASMko mice.
Source text: FIGS. 29A-29C show representative images of immunofluorescence against ibal, a marker for microglia, which is used as a readout for inflammation. FIGS. 29A-29C show ibal expression in hippocampus (FIG. 29A), cerebellum (FIG. 29B), and cortex (FIG. 29C), respectively, of wt and ASMko mice treated with PF-04457845 at the indicated doses or with vehicle.
as §1
Inflammation was analyzed in different brain areas (hippocampus, cerebellum and cortex) by immunofluorescence against the microglia marker iba-1. Under inflammatory conditions the number of microglia increases. Confirming high inflammation in the brain of vehicle-treated ASMko mice, microglia numbers increased compared to wt mice in all areas (FIGS. 29A-29C).

[6] abbreviates: ASMko mice, single dose of 5 mg/kg.
[7] abbreviates: wt mice, single dose of 5 mg/kg.

Consider `O=C(Nc1cccnn1)N1CCC(=Cc2cccc(Oc3ccc(C(F)(F)F)cn3)c2)CC1` [PF-04457845], for which the SM hydrolysis entry in series [1] (50 μM and 1 hour (FIG. 8)) is on record as “promoted SM hydrolysis”. Also, in series [1] (ASMko neurons, 1 hour incubation (FIG. 5A)), the sphingomyelin levels result is “reduced sphingomyelin levels”. Also, in the series with microglia [2] (ASMko mice), the “microglia amoeboid morphology in the hippocampus and cerebellum” value is “normalized to a significant extent”; the “microglia morphology in cerebellum (iba-1)” value was “normalized their morphology”; the “microglia number in cerebellum (iba-1)” value is “reduced microglia number”. Besides, the microglia entry with microglia [2] (wt mice) is given as “no effect”. Further, in the series on wt and ASMko mice [3] (setting [6]), the “sphingomyelin levels in hippocampus” value was “high variability”, the “sphingomyelin levels reduced in cerebellum” value came out at 21%, the “sphingomyelin levels reduced in cortex” value is recorded as 8% and the “sphingomyelin levels reduced in liver” value is 6%. For the same compound, the “reduction of sphingomyelin in brain areas and liver” value in the series with wt and ASMko mice [3] (single dose of 0.1 mg/kg) is reported as “No statistically significant reduction”. Moreover, the “reduction of sphingomyelin in brain areas and liver” value with wt and ASMko mice [3] (single dose of 1 mg/kg) is reported as “No statistically significant reduction”. For the same compound, in the series on wt and ASMko mice [3] (setting [7]), the “sphingomyelin levels reduced in cerebellum” value amounted to 17%, the “sphingomyelin levels reduced in cortex” value is given as 23%, the “sphingomyelin levels reduced in hippocampus” value stood at 13% and the “sphingomyelin levels reduced in liver” value came out at 34%. In addition, the “H&E staining of liver (foam cell pattern)” value in the series with wt and ASMko mice [4] (ASMko mice) was “did not significantly alter this pattern”. Also, the “H&E staining of hippocampus, cerebellum and cortex” value with wt and ASMko mice [4] (wt and ASMko mice) is recorded as “did not cause significant changes in H&E staining”. For the same compound, in the series with microglia [5] (single dose 0.1 mg/kg), the “microglia numbers in hippocampus, cerebellum and cortex” value (“microglia numbers in hippocampus” below) is “did not significantly alter microglia numbers”. Moreover, in the series on microglia [5] (single dose 1 mg/kg), the “microglia numbers in hippocampus” value is given as “remarkably reduced microglia numbers to levels similar to wt mice”. Further, the “microglia numbers in hippocampus” value in the series on microglia [5] (single dose 5 mg/kg) is “remarkably reduced microglia numbers to levels similar to wt mice”.
